# Test results taken from patent US6620850B2, “Materials and methods for treatment of neurological disorders involving overactivation of glutamatergic ionotropic receptors” (University of Florida, priority 2001, dated 2003).
# Tests used:
# [1] = system: Parkinson's disease; conditions: oral administration, patients; cited from earlier work
# [2] = system: GluR-mediated miniature excitatory postsynaptic currents (mEPSCs) in hippocampal neurons; test: mEPSCs in cultured rat hippocampal neurons, whole-cell patch clamp (normoxia); type: cell-based; conditions: for effect on GluR-mediated mEPSCs: cultured hippocampal neurons, normoxia, in presence of MK-801
# [3] = versus 55-60 μM in healthy patients; cited from earlier work
# [4] = system: cocaine dependence; conditions: orally administered, patients; cited from earlier work
structure (smiles),measurement,setting,value
N[C@H](Cc1ccccc1)C(=O)O [D-phenylalanine],clinical benefit in Parkinson's disease,[1],conferred some benefit
"N[C@@H](Cc1ccccc1)C(=O)O [L-Phe, L-phenylalanine]",effect on frequency of mEPSCs (concentration-dependence),"[2]; L-Phe 0.1-3 mM, normalized to control, 5 to 8 cells, P<0.01 compared to control",concentration-dependence of attenuation of the frequency of mEPSCs
same,effect on GluR-mediated mEPSCs,[2],significantly and reversibly attenuate
same,blood concentration of L-Phe causing phenylketonuria (PKU),[3],> 1200 µM
"N[C@@H](Cc1c[nH]c2ccccc12)C(=O)O [L-Trp, L-Tryptophan]",effect on GluR-mediated mEPSCs,[2],significantly and reversibly attenuate
"N[C@@H](Cc1ccc(O)cc1)C(=O)O [L-Tyr, L-tyrosine]",effect on GluR-mediated mEPSCs,[2],significantly and reversibly attenuate
N[C@@H](Cc1ccc(O)cc1)C(=O)O [tyrosine],clinical benefit in cocaine dependence,[4],did not confer a benefit
